Data reported in article PMC6400181, “Calixarene-mediated assembly of a small antifungal protein” (IUCrJ, 2019).

Assays:
[1] = molecular target: PAF (Penicillium antifungal protein) (Penicillium chrysogenum, UniProt Q01701); assay: Isothermal titration calorimetry of PAF–sclxn complexation; type: binding; conditions: ITC, median (2.5% quantile, 97.5% quantile)
Experimental: PAF samples were dissolved in 10 mM sodium phosphate pH 6.0. The same buffer was used to dilute stocks of sclx4 (7.1 mM, PAF 0.5 mM), sclx6 (3.6 mM, PAF 0.5 mM) and sclx8 (2.5 mM, PAF 0.3 mM) to the required concentration. Samples were degassed prior to the titration. Measurements were made at 25°C using a Microcal ITC-200 instrument. Titrations were performed in duplicate with similar trends between each replicate. A single replicate from each calixarene was used for model fitting. Separate titrations of each calixarene into buffer confirmed that the heats of dilution were small, exothermic and approximately constant.
NITPIC (Keller et al., 2012[▸]) was used for baseline correction and integration of the thermograms. Pytc (Duvvuri et al., 2018[▸]) was used to perform model fitting and parameter estimation. The system of equations relating the independent variables of the model (total concentrations) to the experimental observations (heat generated during injections) for the single-site and bidentate-ligand models are as follows.
Single-site model, [drawing 1] [drawing 2] [drawing 3] where [P T]i is the total cell concentration of protein at the ith injection (independent variable), [L T]i is the total cell concentration of ligand at the ith injection (independent variable), K 1 is the equilibrium association constant (fit parameter), ΔH is the enthalpy (fit parameter) associated with K, V cell is the volume of the cell, vi is the volume of the ith injection, qi is the heat generated from the ith injection (dependent variable) and q dil is the heat of dilution (fit parameter, assumed to be constant)
Bidentate-ligand model, [drawing 4] [drawing 5] [drawing 6] where K 1 and K 2 are the microscopic equilibrium association constants (fit parameters), ΔH 1 and ΔH 2 are the enthalpies (fit parameters) associated with K 1 and K 2, respectively
The expressions for mass balance of the protein and ligand can be represented by equations (1) or (4). Equation (2) or (5) can be used to define the equilibrium constants. For the bidentate ligand model, equation (5) was solved numerically (the Levenberg–Marquardt algorithm) to yield the free-protein ([P]i) and free-ligand ([L]i) concentrations. The free concentrations were used to compute the concentrations of the other states via the equilibrium equations. The heat generated from a given injection was determined using either equations (3) or (6). Parameters were constrained to physically reasonable bounds (e.g. K 1 and K 2 values between 10^2 and 10^10 M ^−1) and best-fits were obtained by maximum likelihood starting from a range of initial estimates. Parameter errors and correlations were estimated using a Bayesian approach (Markov chain Monte Carlo simulations). The error for each integrated heat was determined using NITPIC (Keller et al., 2012[▸]).
Isothermal titration calorimetry was used to characterize the PAF–sclxn binding affinities and stoichiometries (Fig. 7 ▸). The data were fitted to a single-site or a bidentate-ligand model. The latter model describes a bidentate ligand that can bind two protein molecules and was necessary to describe the obviously biphasic data for sclx8. The choice of this model is supported by the observation of a PAF–sclx8–PAF dimer in the crystal structure, and by the spectral broadening in the NMR experiments. All of the fit parameters were well determined by the data (Table 1 ▸), with parameter errors assessed by Bayesian methods (Patil et al., 2010[▸]).

cytochrome c = test system: cytochrome c; design: method as in Rennie et al., 2017; conditions: relative to sclx4, ref Rennie et al., 2017; cited from earlier work
[2] = bidentate-ligand model, binding the first molecule of PAF (K1), pH 6.0, 25°C
[3] = bidentate-ligand model, binding the second molecule of PAF (K2), pH 6.0, 25°C
[4] = bidentate-ligand model, first molecule of PAF (ΔH1), pH 6.0, 25°C
[5] = bidentate-ligand model, first molecule of PAF, pH 6.0, 25°C
[6] = bidentate-ligand model, second molecule of PAF (ΔH2), pH 6.0, 25°C
[7] = bidentate-ligand model, second molecule of PAF, pH 6.0, 25°C
[8] = single-site model, 10 mM sodium phosphate pH 6.0, 25°C

Sequence of PAF (Penicillium antifungal protein) (Q01701 entry or part of it): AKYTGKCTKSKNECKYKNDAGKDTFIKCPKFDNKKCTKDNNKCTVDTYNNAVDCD

| Compound | Kd [1, 2] [µM] | Kd [1, 3] [µM] | ΔH [1, 4] | TΔS [1, 5] | ΔH [1, 6] | TΔS [1, 7] | increase in affinity (with respect to sclx4) (cytochrome c) | Kd [1, 8] [µM] | TΔS [1, 8] | ΔH [1, 8] |
| --- | --- | --- | --- | --- | --- | --- | --- | --- | --- | --- |
| O=S(=O)(O)c1cc2c(O)c(c1)Cc1cc(S(=O)(=O)O)cc(c1O)Cc1cc(S(=O)(=O)O)cc(c1O)Cc1cc(S(=O)(=O)O)cc(c1O)Cc1cc(S(=O)(=O)O)cc(c1O)Cc1cc(S(=O)(=O)O)cc(c1O)Cc1cc(S(=O)(=O)O)cc(c1O)Cc1cc(S(=O)(=O)O)cc(c1O)C2 [sclx8, Sulfonato-calix[8]arene] | 10.6 | 33.5 | −3.5 (0.3, 0.3) kJ mol^−1 | −24.8 (0.3, 0.3) kJ mol^−1 | −36.0 (1.7, 1.4) kJ mol^−1 | 10.5 (1.8, 2.1) kJ mol^−1 | – | – | – | – |
| O=P(O)(O)c1cc2c(O)c(c1)Cc1cc(P(=O)(O)O)cc(c1O)Cc1cc(P(=O)(O)O)cc(c1O)Cc1cc(P(=O)(O)O)cc(c1O)Cc1cc(P(=O)(O)O)cc(c1O)Cc1cc(P(=O)(O)O)cc(c1O)C2 [pclx6, phosphonato-calix[6]arene] | – | – | – | – | – | – | approximately tenfold | – | – | – |
| O=S(=O)(O)c1cc2c(O)c(c1)Cc1cc(S(=O)(=O)O)cc(c1O)Cc1cc(S(=O)(=O)O)cc(c1O)Cc1cc(S(=O)(=O)O)cc(c1O)C2 [sclx4] | – | – | – | – | – | – | – | 107 | −5.6 (0.2, 0.2) kJ mol^−1 | −16.9 (0.1, 0.1) kJ mol^−1 |
| O=S(=O)(O)c1cc2c(O)c(c1)Cc1cc(S(=O)(=O)O)cc(c1O)Cc1cc(S(=O)(=O)O)cc(c1O)Cc1cc(S(=O)(=O)O)cc(c1O)Cc1cc(S(=O)(=O)O)cc(c1O)Cc1cc(S(=O)(=O)O)cc(c1O)C2 [sclx6] | 47.8 | 45.8 | −9.2 (0.1, 0.2) kJ mol^−1 | −15.4 (0.4, 0.3) kJ mol^−1 | −20.1 (0.4, 0.4) kJ mol^−1 | −4.6 (0.6, 0.6) kJ mol^−1 | – | 15.4 | −0.7 (0.2, 0.2) kJ mol^−1 | −28.2 (0.2, 0.1) kJ mol^−1 |
